Among the data in patent US10584115B2, “Substituted pyridine and pyrazine BMI-1 inhibitors” (PTC Therapeutics, Inc., priority 2013, dated 2020) are EC50 values, retold here.

The first experiment deals with Bmi-1 protein. Nature of the experiment: Sandwich ELISA Assay (Bmi-1 protein level in HT-1080 cells after compound treatment). To be noted: Table 1, Bmi-1 sandwich ELISA, read-out: ELISA EC50 value for Bmi-1 protein. The class given is cell-based. As to the method:
Cell Seeding and Compound Treatment (Day 1):
HT-1080 cells were seeded at 8000 cells/well (50 μL) in 96-well tissue culture plates. After the cells became adherent (3-4 hours), 2× diluted stocks of test compounds in 50 μL DMEM containing 1% DMSO (final DMSO concentration was 0.5%) were added and the plates were incubated at 37° C. under 5% CO2 for 40-48 hours.
ELISA Plate First Antibody Preparation (Day 2):
The First Antibody (Millipore Mouse, monoclonal to mouse Bmi-1, clone F6, catalog #05-637) diluted to […] in PBS was added (100 μL) to each well of a Nunc MaxiSorp 96-well ELISA plate. The plate was covered with a plate seal and allowed to stand overnight.
Cell Lysate Preparation (Day 3):
Fresh Lysis buffer (1×) was prepared on the day of the assay as follows: 1 mM EDTA, 150 mM NaCl, 0.5% Triton-X 100, 10 mM NaF, 20 mM B-Glycerophosphate, 1 mM DTT (in PBS, pH 7.2-7.4) and HALT protease inhibitor cocktail (lx) (Pierce #78410).
A standard curve was prepared at the following Bmi-1 concentrations: 8000, 4000, 2000, 1000, 500, 250, 125 and 0 pg/mL. The Bmi-1 Recombinant Protein Standard (Novus Biologicals PCGF4 Recombinant Protein (P01), catalog # H00000648-P01) used to prepare the standard curve was stored at −80° C. On first thaw, the Recombinant Protein Standard was diluted to 10 μg/L in Blocking Buffer (1% BSA in PBS; BSA: Fisher Scientific Catalog #1600-100). Aliquots were taken and refrozen at −80° C. The aliquots may be kept at 4° C. and reused after first thaw, but only within 1-2 weeks. The Recombinant Protein Standard contains a GST-fusion tag that appears at approximately 70 Kda on Western Blot.
The prepared ELISA plate was washed 3× with Wash Buffer (0.05% Tween-20 in PBS). The final wash was removed from the plate and the plate was blotted dry. Blocking Buffer (300 μL) (1% BSA in PBS) was added to each well. The plate was covered with a plate seal and incubated at room temperature for 1 hour. The blocked plate was washed 3× with Wash Buffer, then the final wash was removed and the plate was blotted dry. The previously prepared samples and standards were added ([…]) and the plate was covered with a plate seal and incubated at 4° C. overnight.
The prepared ELISA plate was removed from incubation and allowed to stand at room temperature for 30 minutes, then washed and blotted dry. The Second Antibody (Cell Signaling Rabbit anti-Bmi-1, Cat #2830) diluted to 1:600 in Blocking Buffer was added (100 μL) to each well, except as needed for background control wells. The plate was covered with a plate seal and incubated for 1.5 hrs at room temperature.
The ELISA plate was washed and blotted dry as previously described. The Third Antibody (Cell Signaling HRP conjugated anti-rabbit IgG (CellSignaling, Cat #:7074) diluted to 1:300 in Blocking Buffer was added (100 μL) to each well, except as needed for background control wells. The plate was incubated for 1 hr at room temperature.
The plate was washed and blotted dry, then a previously prepared TMB substrate (TMB substrate kit, Pierce catalog #34021) (prepared by mixing kit reagents 1:1) (100 μL) was added per well. The plate was incubated for 20-30 minutes at room temperature in the dark, then Stop Solution (2 M sulfuric acid in water) (50 μL) was added per well. The plates were read at OD450 (experimental) and OD570 (reference).
In general terms: ELISA stands for enzyme-linked immunosorbent assay.
As for `COc1ccc(Nc2nc(-c3c(C(F)(F)F)nc4ccccn34)ccc2C#N)cc1` [compound 41, 2-[(4-methoxyphenyl)amino]-6-[2-(trifluoromethyl)imidazo[1,2-a]pyridin-3-yl]pyridine-3-carbonitrile], the EC50 (usually the concentration that produces a half-maximal response) is 100 to 3000 nM.
The same measure, in the same setting: in the case of `Cc1nc(C(F)(F)F)cn1-c1cncc(Nc2ccc(C(F)(F)F)cc2)n1` [compound 303, 6-[2-methyl-4-(trifluoromethyl)-1H-imidazol-1-yl]-N-[4-(trifluoromethyl)phenyl]pyrazin-2-amine] it was 100 to 3000 nM.
Still for that read-out and setting: in the case of `COc1ccc2nc(C(F)(F)F)c(-c3cccc(Nc4ccc(OC(F)(F)F)cc4)n3)n2c1` [compound 101, 6-[6-methoxy-2-(trifluoromethyl)imidazo[1,2-a]pyridin-3-yl]-N-[4-(trifluoromethoxy)phenyl]pyridin-2-amine] it was 10 to 100 nM; in that of `COc1ccc2nc(C)c(-c3cc(C#N)cc(Nc4ccc(C)cc4)n3)n2c1` [compound 673, 2-(6-methoxy-2-methylimidazo[1,2-a]pyridin-3-yl)-6-[(4-methylphenyl)amino]pyridine-4-carbonitrile], 100 to 3000 nM.
For `Cc1nc2ccc(F)cc2n1-c1cncc(Nc2ccc(C(F)(F)F)nc2)n1` [compound 432, 6-(6-fluoro-2-methyl-1H-benzimidazol-1-yl)-N-[6-(trifluoromethyl)pyridin-3-yl]pyrazin-2-amine], the EC50 was 10 to 100 nM.
The same measure, in the same setting: to `CSc1nc2ccccc2n1-c1cncc(Nc2ccc(C(F)(F)F)cc2)n1` [compound 54, 6-[2-(methylsulfanyl)-1H-benzimidazol-1-yl]-N-[4-(trifluoromethyl)phenyl]pyrazin-2-amine] belongs 10 to 100 nM; to `COc1ccc(Nc2cncc(-n3c(C)nc4ccccc43)n2)cc1` [compound 561, N-(4-methoxyphenyl)-6-(2-methyl-1H-benzimidazol-1-yl)pyrazin-2-amine], 1 to 10 nM; to `Fc1ccc2nc(C(F)(F)F)c(-c3cncc(Nc4ccc(Cl)cc4)n3)n2c1` [compound 670, N-(4-chlorophenyl)-6-[6-fluoro-2-(trifluoromethyl)imidazo[1,2-a]pyridin-3-yl]pyrazin-2-amine], 100 to 3000 nM.
Still for that read-out and setting: in the case of `Cc1nc2ccccc2n1-c1cccc(Nc2ccc(OC(F)F)cc2)n1` [Cpd 35, N-[4-(difluoromethoxy)phenyl]-6-(2-methyl-1H-benzimidazol-1-yl)pyridin-2-amine] it was 10 to 100 nM.
Consider `Fc1cc2nc(C3CC3)n(-c3cncc(Nc4ccc(C(F)(F)F)cc4)n3)c2cc1F` [compound 182, 6-(2-cyclopropyl-5,6-difluoro-1H-benzimidazol-1-yl)-N-[4-(trifluoromethyl)phenyl]pyrazin-2-amine], for which the EC50 lay in the range of 10 to 100 nM.
Same read-out and setting: in the case of `Cc1nc2c(F)cc(F)cn2c1-c1cncc(Nc2ccc(OC(F)F)cc2)n1` [compound 255, N-[4-(difluoromethoxy)phenyl]-6-(6,8-difluoro-2-methylimidazo[1,2-a]pyridin-3-yl)pyrazin-2-amine] it was 1 to 10 nM; in that of `COc1cc(C)ccc1Nc1cncc(-n2c(C)nc3ccccc32)n1` [compound 576, N-(2-methoxy-4-methylphenyl)-6-(2-methyl-1H-benzimidazol-1-yl)pyrazin-2-amine], 100 to 3000 nM.
Turning to `FC(F)(F)Oc1ccc(Nc2cncc(-c3c(C(F)(F)F)nc4ncccn34)n2)cc1` [Cpd 100, N-[4-(trifluoromethoxy)phenyl]-6-[2-(trifluoromethyl)imidazo[1,2-a]pyrimidin-3-yl]pyrazin-2-amine], the EC50 was 100 to 3000 nM.
In the case of `FC(F)(F)c1nc2sccn2c1-c1cncc(Nc2ccccc2)n1` [compound 122, N-phenyl-6-[6-(trifluoromethyl)imidazo[2,1-b][1,3]thiazol-5-yl]pyrazin-2-amine], the EC50 was in the range of 100 to 3000 nM.
Same read-out and setting: to `Cc1nc2ccccc2n1-c1cncc(Nc2ccc(C(F)(F)F)c(CO)c2)n1` [compound 519] belongs 10 to 100 nM; to `FC1(F)Oc2ccc(Nc3cncc(-c4cccc5nc(C6CC6)cn45)n3)cc2O1` [compound 88, 6-(2-cyclopropylimidazo[1,2-a]pyridin-5-yl)-N-(2,2-difluoro-1,3-benzodioxol-5-yl)pyrazin-2-amine], 100 to 3000 nM.
Turning to `Cc1cc2nc(C)n(-c3cncc(Nc4ccc(C(F)(F)F)cc4)n3)c2cc1C` [compound 386, N-[4-(trifluoromethyl)phenyl]-6-(2,5,6-trimethyl-1H-benzimidazol-1-yl)pyrazin-2-amine], the EC50 was in the range of 100 to 3000 nM.
For `Cc1nn2ccccc2c1-c1cc(C#N)cc(Nc2ccc(OC(F)(F)F)cc2)n1` [compound 514, 2-(2-methylpyrazolo[1,5-a]pyridin-3-yl)-6-{[4-(trifluoromethoxy)phenyl]amino}pyridine-4-carbonitrile], the concentration for a half-maximal effect (EC50) is 100 to 3000 nM.
On the same count and under the same terms, to `FC(F)(F)c1ccc(Nc2cncc(-n3c(C(F)(F)F)nc4ncccc43)n2)cc1` [compound 123, 6-[2-(trifluoromethyl)-1H-imidazo[4,5-b]pyridin-1-yl]-N-[4-(trifluoromethyl)phenyl]pyrazin-2-amine] belongs 100 to 3000 nM; to `Cc1cc2ccccc2n1-c1cncc(Nc2ccc(OC(F)F)cc2)n1` [compound 163, N-[4-(difluoromethoxy)phenyl]-6-(2-methyl-1H-indol-1-yl)pyrazin-2-amine], 100 to 3000 nM; to `COc1cccc(Nc2cncc(-c3c(C)nn4ccccc34)n2)c1` [compound 569, N-(3-methoxyphenyl)-6-(2-methylpyrazolo[1,5-a]pyridin-3-yl)pyrazin-2-amine], 10 to 100 nM.
As for `Cc1nc2ccccc2n1-c1cncc(Nc2ccc(C(C)(C)C)cc2)n1` [compound 659, N-(4-tert-butylphenyl)-6-(2-methyl-1H-benzimidazol-1-yl)pyrazin-2-amine], the EC50 fell in the range of 100 to 3000 nM.
Still for that read-out and setting: to `Cc1nn2ccccc2c1-c1cc(C#N)cc(Nc2ccc(OC(F)F)cc2)n1` [compound 512, 2-{[4-(difluoromethoxy)phenyl]amino}-6-(2-methylpyrazolo[1,5-a]pyridin-3-yl)pyridine-4-carbonitrile] belongs 10 to 100 nM; to `Fc1cnc2nc(C3CC3)n(-c3cncc(Nc4ccc(OC(F)(F)F)cc4)n3)c2c1` [compound 456, 6-(2-cyclopropyl-6-fluoro-1H-imidazo[4,5-b]pyridin-1-yl)-N-[4-(trifluoromethoxy)phenyl]pyrazin-2-amine], 100 to 3000 nM.
With `Cc1ccc(Nc2cc(N)cc(-n3c(C)nc4ccccc43)n2)cc1` [compound 632, 6-(2-methyl-1H-benzimidazol-1-yl)-N^2-(4-methylphenyl)pyridine-2,4-diamine], the EC50 lay within 1 to 10 nM.
For `Cc1nn2ccccc2c1-c1cncc(Nc2ccc(Cl)cc2)n1` [compound 567, N-(4-chlorophenyl)-6-(2-methylpyrazolo[1,5-a]pyridin-3-yl)pyrazin-2-amine], the EC50 lay in the range of 10 to 100 nM.
On the same count and under the same terms, to `Cn1nc2ccc(F)cc2c1-c1cncc(Nc2ccc(C(F)(F)F)cc2)n1` [compound 416, 6-(5-fluoro-2-methyl-2H-indazol-3-yl)-N-[4-(trifluoromethyl)phenyl]pyrazin-2-amine] belongs 10 to 100 nM.
Still for that read-out and setting: to `CCNc1nc2ccccc2n1-c1cncc(Nc2ccc(C(F)(F)F)cc2)n1` [compound 138, N-ethyl-1-(6-{[4-(trifluoromethyl)phenyl]amino}pyrazin-2-yl)-1H-benzimidazol-2-amine] belongs 10 to 100 nM.

Still in this experiment, the particulars now being: read-out: ELISA EC50 value for Bmi-1 protein, Table 1, Bmi-1 sandwich ELISA.
With `Cn1nc2c(c1-c1cncc(Nc3ccc(C(F)(F)F)cc3)n1)CCCC2` [compound 454, 6-(2-methyl-4,5,6,7-tetrahydro-2H-indazol-3-yl)-N-[4-(trifluoromethyl)phenyl]pyrazin-2-amine], the EC50 was 1 to 10 nM.
